Three substances from patent US5461142A, “Phosphorylated derivatives of cardiodilatin/ANF peptides” (Pharma Bissendorf Peptide GmbH, priority 1987, dated 1995) can be followed below.

Entries after “also recorded” stand apart in the source; their conditions may differ. No end group written: not given here.

For the assay, the system named is rabbit aorta muscle strips. Kind of assay: Bioactivity test: relaxation of norepinephrine-precontracted rabbit aorta muscle strips in organ bath. The assay is classed as cell-based, New Zealand rabbits. To be noted: for relaxation activity: Example 6, tested as in Example 5, corresponding concentrations. Here is the method:
Muscle strips of rabbit aorta were first contracted by the action of a solution of norepinephrine (10^-7 M). After constant conditions had been adjusted, the peptides were added (position of the arrow).
The muscle relaxation continues only after a further addition of unphosphorylated alpha-nANaP.
Aortae of New Zealand rabbits were prepared. The muscular tension was measured with a muscle strip in an organ bath containing physiological saline. The strips were pre-contracted with a solution of 10^-6 M of norepinephrin, then at fill relaxation. For the assay, a further contraction was induced with 10^-7 M of norepinephrin. After constant contraction conditions had been reached, the peptides were applied.
Alpha-hANaP was phosphorylated according to EXAMPLE 1 in the presence of ATP and the catalytic subunit according to EXAMPLE 1. For control, unphosphorylated alpha-hANaP was incubated under the same conditions, however in the absence of ATP. […] Stepwise addition of unphosphorylated, phosphorylated and in turn unphosphorylated alpha-hANaP allows clearly to recognize that only unphosphorylated alpha-hANaP exerts a significant relaxing effect in comparison to phosphorylated peptide. If the addition is reversed, first phosphorylated, then unphosphorylated and again phosphorylated alpha-hANaP, the corresponding reversed relaxation effect is found.
CDD-32 (Urodilatin) is phosphorylated according to Example 1 and investigated for its biological activity in the same manner as in Example 5.

In the case of Urodilatin [reference compound], the relaxation activity entry is “dose-dependant relaxation activity”.
For “phosphorylated CDD-28: alpha-hANaP (positions 99-126 of gamma-hANaP) phosphorylated with c-AMP-dependent proteinkinase; formula I with R = H, X = phosphate (SLRRSSCFGGRMDRIGAQSGLGCNSFRY; ends and bridges not checked; also: phosphorylated (phosphate), site not given here; UniProt P01160 124-151, looked up)”, the “effect onto the smooth vascular musculature (relaxation)” value (FIG. 5, strips contracted with norepinephrine 10^-7 M, peptide final concentration 0.3 to 0.6×10^-9 M) was “only a slight relaxation”. For the same substance, the “muscle relaxation of precontracted rabbit aorta strips” value (FIG. 7 / Example 5, final concentration 0.3×10^-9 M, stepwise addition, listed as phosphorylated alpha-hANaP) is recorded as “an effect next to nothing; also recorded: negligible effect”.
In the case of “phosphorylated CDD-32: CDD-32 (urodilatin, amino acids 95-126 of gamma-hANaP) phosphorylated according to Example 1 (TAPRSLRRSSCFGGRMDRIGAQSGLGCNSFRY; ends and bridges not checked; also: phosphorylated (phosphate), site not given here; UniProt P01160 120-151, looked up)”, the relaxation activity result is reported as “distinctly reduced relaxation”. Also, the relative relaxation capability result (FIG. 8, phosphorylated versus unphosphorylated form at corresponding concentration) is “significantly lower relaxation capability than that of the unphosphorylated form”.
